Patent US20230310372A1 (Amarin Pharmaceuticals Ireland Limited, priority 2013, published 2023)
Where “and” joins values, the source holds several entries; their conditions need not be identical. Equal entries are not always repeated.

Experiment: Phase 1, open-label, crossover drug-drug interaction study: steady-state plasma pharmacokinetics of atorvastatin and its two active metabolites with or without ethyl eicosapentaenoate
Conditions: for Effect of co-administration of ethyl eicosapentaenoate on Tmax: atorvastatin 80 mg alone versus with 4 g ethyl eicosapentaenoate; for Change of mean plasma concentrations over time: subjects concomitantly administered 4 g of ethyl eicosapentaenoate, FIG. 1B, 1C
Description: Data for Cmax and AUC0-24 are reported as means (SD); data for Tmax are reported as median values.

[1] = 80 mg atorvastatin co-administered with 4 g ethyl eicosapentaenoate
[2] = atorvastatin + ethyl eicosapentaenoate group divided by atorvastatin only group
[3] = atorvastatin + ethyl eicosapentaenoate versus atorvastatin only

| AUC0-24, mean (80 mg atorvastatin alone) | Cmax, mean (80 mg atorvastatin alone) | Tmax, median (80 mg atorvastatin alone) | AUC0-24, mean [1] | Cmax, mean [1] | Tmax, median [1] | Effect of co-administration of ethyl eicosapentaenoate on Tmax | Change of mean plasma concentrations over time | AUC0-24, LSGM (least squares geometric mean) (A + EPA = atorvastatin (80 mg) co-administered with ethyl eicosapentaenoate (4 g)) | AUC0-24, Ratio of LSGM [2] | Cmax, Ratio of LSGM [2] | AUC0-24, 90% CI of the ratio [3] | Cmax, 90% CI of the ratio [3] | Structure (SMILES) |
| --- | --- | --- | --- | --- | --- | --- | --- | --- | --- | --- | --- | --- | --- |
| 36.7 ng·h/mL | 4.1 ng/mL | 1.50 h | 34.3 ng·h/mL | 4.2 ng/mL | 1.50 h | did not significantly affect | did not significantly change |  |  |  |  |  | CC(C)c1c(C(=O)Nc2ccc(O)cc2)c(-c2ccccc2)c(-c2ccc(F)cc2)n1CC[C@@H](O)C[C@@H](O)CC(=O)O [4-Hydroxyatorvastatin, 4-hydroxyatorvastatin] |
| 213.1 ng·h/mL | 43.2 ng/mL | 1.25 h | 196.7 ng·h/mL | 44.5 ng/mL | 1.25 h | did not significantly affect | did not significantly change | 30.9 ng·h/mL | 0.91 and 0.92 | 1.04 and 0.97 | 82.8-99.7 and 82.3-103 | 89.1-121 and 80.0-117 | CC(C)c1c(C(=O)Nc2ccccc2O)c(-c2ccccc2)c(-c2ccc(F)cc2)n1CCC(O)CC(O)CC(=O)O (stereo not drawn) [2-Hydroxyatorvastatin, 2-hydroxyatorvastatin] |
